Data on 1 compound can be found in article PMC9709406 (Frontiers in Pharmacology, 2022).

Structures are written as SMILES. Where two headings read alike, the source gives them in different places. A value given as a limit tells only on which side of the number the result lay.

For one assay, the system named is H1650 cells. The experiment in a line: MTT assay for cell proliferation and cytotoxicity, H1650. It counts as cell-based. Particulars: Homo sapiens, NCI-H1650, 48 h, H1650, n = 5. In a few lines:
(§1)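 Cells seeded at 2,200–2,500/well in RPMI-1640 with 10% FBS; taxol-resistant lines maintained in 100 nm/L paclitaxel. Compounds at 0–50 μM added next day (0.1% DMSO control), five replicate wells, 48 h exposure. Viability by MTT, absorbance 490 nm.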

The subject of the next assay is H1975 cells. The assay can be described thus: MTT assay for cell proliferation and cytotoxicity, H1975. It counts as cell-based, human. Particulars: MTT, 48 h, H1975, n = 5, read-out: IC50 48 h H1975. Summed up: as §1
On the technique in general: Formazan colour is commonly taken as a measure of viable cells.

Another assay deals with H1650TR cells. The experiment in a line: MTT assay, taxol-resistant H1650TR. It counts as cell-based. The note with it: Homo sapiens, NCI-H1650, 48 h, value in parentheses in H1650 column. An excerpt: (§2) The human cancer cells (H1650, H1975, KYSE70, KYSE410 and KYSE450) were purchased from the Type Culture Collection of the Chinese Academy of Sciences (Shanghai, China). The human immortalized normal esophageal epithelial cell line SHEE was donated by Dr. Enmin Li from the Laboratory of Tumor Pathology (Shantou University Medical College, Shantou, Guangdong, China). Drug-resistant cells (H1650TR, H1975OR, KYSE70TR, KYSE410TR and KYSE450TR) were induced by China-US (Henan) Hormel Cancer Institute. The cellswere cultured in RPMI-1640 complete growth medium containing 100 U/mL penicillin-streptomycin and 10% FBS. Based on the above medium formula, 100 nm/L paclitaxel was added in taxol-resistant cells, 100 nm/L gefitinib was added in gefitinib-resistant cells. The cells were incubated at 37 °C in an atmosphere containing 5% of CO2. The compounds were dissolved in DMSO to make a 50 mM stock solution and were diluted to the concentration of working solutions with complete growth medium before administration.
Cells were seeded in 96-well plates with 2,200–2,500 cells/well in100 μL. One day after seeding, test compounds with the concentration between 0 and 50 μM were added with 0.1% DMSO as control. Five multiple wells for each concentration. After 48 h, MTT was added and incubated in the plate for 1–4 h in the incubator. The absorbance at 490 nm was measured using a microplate reader (Thermo).

In another assay the test system is H1975OR cells. The assay can be described thus: MTT assay, osimertinib-resistant H1975OR. It counts as cell-based. The note with it: Homo sapiens, NCI-H1975, 48 h, osimertinib-resistant H1975OR, value in parentheses in H1975 column, read-out: IC50 48 h H1975OR (data in parentheses) (converted).
Excerpt: as §2
(§3) Cells were seeded in 96-well plates with 2,200–2,500 cells/well in100 μL. One day after seeding, test compounds with the concentration between 0 and 50 μM were added with 0.1% DMSO as control. Five multiple wells for each concentration. […] The absorbance at 490 nm was measured using a microplate reader (Thermo).

Another assay concerns SHEE cells. The assay can be described thus: MTT assay, normal esophageal epithelial cell line SHEE. It counts as cell-based. The note with it: Homo sapiens, 48 h, n = 5. Summed up: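 Growth inhibition is measured by MTT reduction (A490) following 48 h treatment across 0–50 μM compound, with 0.1% DMSO as control. Taxol-resistant sublines are cultured in medium carrying 100 nm/L paclitaxel.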

The next assay concerns KYSE70 cells. The assay can be described thus: MTT assay, KYSE70. It counts as cell-based, human. The note with it: Homo sapiens, KYSE-70; MTT, 48 h, KYSE70, n = 5. Summed up: as §1
A further assay concerns KYSE410 cells. The assay can be described thus: MTT assay, KYSE410. Particulars: Homo sapiens, KYSE-410; MTT, 48 h, KYSE410, n = 5; read-out: IC50 48 h KYSE410. It counts as cell-based, human. Summed up:
as §1

Assay [1] concerns KYSE450 cells. The assay can be described thus: MTT assay, KYSE450. It counts as cell-based, human. The note with it: Homo sapiens, KYSE-450; MTT, 48 h, KYSE450, n = 5; read-out: IC50 48 h KYSE450. Summed up: as §1
The next assay concerns KYSE70TR cells. The assay can be described thus: MTT assay, taxol-resistant KYSE70TR. It counts as cell-based, human. The note with it: Homo sapiens; MTT, 48 h, taxol-resistant KYSE70TR, value in parentheses; read-out: IC50 48 h KYSE70TR (data in parentheses) (converted).
Excerpt: as §2, §3

The next assay relates to KYSE410TR cells. The assay can be described thus: MTT assay, taxol-resistant KYSE410TR. It counts as cell-based, human. Particulars: Homo sapiens; MTT, 48 h, taxol-resistant KYSE410TR, value in parentheses; read-out: IC50 48 h KYSE410TR (data in parentheses) (converted).
Excerpt: as §2, §3

The subject of assay [2] is KYSE450TR cells. The experiment in a line: MTT assay, taxol-resistant KYSE450TR. It counts as cell-based, human. Particulars: Homo sapiens; MTT, 48 h, taxol-resistant KYSE450TR, value in parentheses; read-out: IC50 48 h KYSE450TR (data in parentheses) (converted).
Excerpt: as §2, §3

A further assay concerns the target T1, EGFR (Homo sapiens, UniProt P00533).
T1 construct: purchased Active MOTIF
The experiment in a line: EGFR kinase assay (ELISA). It counts as biochemical. The note with it: 25°C. Here is the method:
Kinase inhibitory activities of the compounds were evaluated using the Protein Tyrosine Kinase Assay Kit (SignalChem (British Columbia, Canada)). The kinase enzyme of EGFR was purchased from Active MOTIF. The ELISA experiments were carried out according the instructions of the kit. Active kinases were incubated with indicated compounds in 1 × reaction buffer containing 20 μM substrate at 25°C for 1 h and 2 h, respectively. The absorbance was read with a multimode plate reader (PerkinElmer, United States) at 450 nm.
(In general: ELISA stands for enzyme-linked immunosorbent assay.)

Assay [3] relates to KYSE450 cells. The experiment in a line: Annexin V/PI flow cytometry for apoptosis, KYSE450. The note with it: 48 h. It counts as cell-based, human. Here is the method: (§4) Cell-apoptosis analysis was carried out by flow cytometry using the Annexin V/PI apoptosis methods. […] Cells were harvested and incubated with 250 μL of 1 × Annexin V binding buffer containing 5 μL PI and 5 μL FITC Annexin V (final concentration 1.8 μg/ml, Biolegend (cat: 640945) for 15 min at room temperature in dark. 200 µL of 1 × binding buffer was added for flow cytometry analysis (BD FACSCalibur™ Flow Cytometer).
(In general: A flow cytometer gives signals particle by particle.)

Assay [4] deals with KYSE450TR cells. The assay can be described thus: Annexin V/PI flow cytometry for apoptosis, KYSE450TR. It counts as cell-based, human. The note with it: 48 h. As for the experimental part:
as §4

Assay [5] relates to KYSE450 cells. The assay can be described thus: Cell cycle analysis by flow cytometry, KYSE450. It counts as cell-based, human. The note with it: KYSE450, 24 h; icotinib at 2 μM, 3l at 8 μM. As for the experimental part:
(§5) KYSE450/KYSE450TR cells were plated in 6-well plates with a density of 1×10^5 cells/well and cultured overnight. […] Trypsinization treatment and the cells were collected by centrifugation. The cell pellet was re-suspended in 70% ethanol at −20°C for at least 3 h. The cells were washed with PBS and were re-suspended in 250 μL of 0.6% tricine with Renease A for 1 h, then stained in PI (final concentration 1.8 μg/ml, Biolegend cat: 640945) for 15 min in dark. Cells were retransferred to the BD FACSCalibur™ Flow Cytometer. All analyses were performed with FlowJo software v105.3.6.

Assay [6] deals with KYSE450TR cells. The experiment in a line: Cell cycle analysis by flow cytometry, KYSE450TR. It counts as cell-based, human. The note with it: 24 h, icotinib at 8 μM, 3l at 8 μM. Here is the method: as §5
The target of assay [7] is T2, EGFR wild protein (H672-A1210) (Homo sapiens, UniProt P00533).
T2 construct: purchased Active MOTIF 31165
T2 sequence (P00533 672-1210): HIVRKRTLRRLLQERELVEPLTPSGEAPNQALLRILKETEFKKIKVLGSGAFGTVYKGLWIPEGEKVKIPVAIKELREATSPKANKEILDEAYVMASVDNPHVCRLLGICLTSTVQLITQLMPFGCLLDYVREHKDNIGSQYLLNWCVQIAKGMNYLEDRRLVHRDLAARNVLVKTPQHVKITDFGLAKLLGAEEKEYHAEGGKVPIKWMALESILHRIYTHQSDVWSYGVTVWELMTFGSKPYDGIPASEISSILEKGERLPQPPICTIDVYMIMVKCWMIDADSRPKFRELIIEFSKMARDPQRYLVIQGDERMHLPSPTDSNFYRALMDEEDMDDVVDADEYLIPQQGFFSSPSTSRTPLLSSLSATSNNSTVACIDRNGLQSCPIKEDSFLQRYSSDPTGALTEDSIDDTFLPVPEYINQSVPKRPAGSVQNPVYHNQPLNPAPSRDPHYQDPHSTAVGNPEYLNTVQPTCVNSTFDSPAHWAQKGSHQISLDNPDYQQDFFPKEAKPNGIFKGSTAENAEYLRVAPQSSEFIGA
The assay can be described thus: EGFR protein affinity determined with SPR. It counts as binding. Particulars: immobilized wild-type EGFR. Here is the method: Firstly, EGFR protein (protein concentration : 0.468 μg/μL, Active MOTIF, cat: 31165, lot: 28215004) was covalently immobilized onto a CM5 sensor chip at densities of 2000 response units. […] During the drug-protein interaction, the change of the refractive index was measured in real-time which would allow the plotting of the results of interaction as response units versus time. The interaction results were analyzed under a BIA evaluation 3.0 software.

T1 sequence (P00533 25-1210): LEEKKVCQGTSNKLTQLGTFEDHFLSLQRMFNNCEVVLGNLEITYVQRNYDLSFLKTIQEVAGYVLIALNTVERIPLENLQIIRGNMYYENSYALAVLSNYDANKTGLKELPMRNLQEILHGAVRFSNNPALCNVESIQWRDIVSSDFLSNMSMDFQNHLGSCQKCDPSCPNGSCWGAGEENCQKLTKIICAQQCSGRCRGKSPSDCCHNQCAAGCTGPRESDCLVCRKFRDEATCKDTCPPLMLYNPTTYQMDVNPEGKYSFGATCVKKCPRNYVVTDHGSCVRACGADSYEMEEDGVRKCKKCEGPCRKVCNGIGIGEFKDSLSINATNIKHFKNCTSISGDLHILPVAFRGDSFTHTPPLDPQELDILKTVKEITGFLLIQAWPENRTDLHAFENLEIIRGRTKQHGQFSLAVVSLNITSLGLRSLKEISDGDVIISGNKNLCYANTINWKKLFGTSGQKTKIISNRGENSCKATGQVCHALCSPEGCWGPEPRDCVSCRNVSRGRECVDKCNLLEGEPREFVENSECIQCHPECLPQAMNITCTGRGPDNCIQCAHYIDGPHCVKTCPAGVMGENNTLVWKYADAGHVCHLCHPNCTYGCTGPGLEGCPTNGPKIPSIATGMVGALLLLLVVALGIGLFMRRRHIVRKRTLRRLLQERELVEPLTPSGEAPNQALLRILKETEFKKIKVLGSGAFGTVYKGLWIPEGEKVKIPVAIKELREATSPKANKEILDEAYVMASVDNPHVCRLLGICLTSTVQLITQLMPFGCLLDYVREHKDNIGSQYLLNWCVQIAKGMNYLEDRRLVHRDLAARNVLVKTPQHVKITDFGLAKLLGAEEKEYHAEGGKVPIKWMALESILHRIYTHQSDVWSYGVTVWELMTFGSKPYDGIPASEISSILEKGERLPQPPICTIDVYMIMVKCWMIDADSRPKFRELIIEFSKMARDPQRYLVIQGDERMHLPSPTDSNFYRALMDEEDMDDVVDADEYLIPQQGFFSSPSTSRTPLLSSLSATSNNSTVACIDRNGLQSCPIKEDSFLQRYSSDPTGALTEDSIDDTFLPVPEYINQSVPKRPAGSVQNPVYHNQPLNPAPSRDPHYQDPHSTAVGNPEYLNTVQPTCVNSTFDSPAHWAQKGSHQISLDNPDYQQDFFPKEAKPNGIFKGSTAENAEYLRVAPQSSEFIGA

As for `C#Cc1cccc(Nc2ncnc3cc4c(cc23)OCCOCCOCCO4)c1` [icotinib, reference compound], the IC50 with H1650 cells is greater than 50 µM; in the assay with H1975 cells (Homo sapiens, NCI-H1975, 48 h) it was greater than 50 µM; with H1975 cells, 48.3 ± 2.13 µM; in the assay on H1650TR cells it was greater than 50 µM; in the assay with H1975OR cells, greater than 50 µM; with SHEE cells, 19.2 ± 1.29 µM. The IC50 in the assay with KYSE70 cells was greater than 50 µM; in the assay on KYSE410 cells, greater than 50 µM; with KYSE450 cells [1], 30.4 ± 1.96 µM; with KYSE70TR cells, greater than 50 µM; in the assay with KYSE410TR cells, greater than 50 µM; in the assay with KYSE450TR cells [2], greater than 50 µM. Moreover, the IC50 at EGFR (incubation 1 h, read-out: IC50 EGFR 1 h) turned out to be 0.00138 µM; on EGFR (incubation 2 h, read-out: IC50 EGFR 2 h) it was 0.038 µM. Further, the “proportion of apoptotic cells” value in the assay on KYSE450 cells [3] (KYSE450, 2 μM) came to 7.84%; in the assay on KYSE450 cells [3] (KYSE450, 4 μM), 12.25%; in the assay on KYSE450TR cells [4] (5 μM), 8.51%; in the assay with KYSE450TR cells [4] (10 μM) it was 10.43%. Further, the “cell cycle phase in which cells were arrested” value in the assay on KYSE450 cells [5] and with KYSE450TR cells [6] was “G1 phase” in each case. Further, in [7], the “Rmax(RU)” value is recorded as 15.74 RU. In addition, the Kd in assay [7] (25°C) was 36.1 µM.

In general, IC50 refers to the concentration at which inhibition is half-maximal. What is called Kd is the constant that tells how readily two partners part at equilibrium. Read a low Kd as a tighter complex.
